In patent US5654280A, “Pharmaceutical composition” (Perstorp AB, priority 1989, dated 1997):
Where a name gives a salt, the structure may show the parent alone.

Legend:
[1] = target: membrane preparation from rat hearts (binding sites of D-myo-inositol-1,2,6-triphosphate); assay: Displacement of tritiated D-myo-inositol-1,2,6-triphosphate from rat heart membrane preparation; settings: rat heart membranes, 60 minutes in ice, 50 mM HEPES pH 7.4
Method: A membrane preparation for binding experiments was prepared at 4° C. Remaining blood was removed from fresh rats hearts (approx. 25 g) and the hearts were minced on chilled plates and blended thoroughly with 20 volumes (v/w) of 0.32M sucrose. The mixture was homogenized using a glass homogenizer followed by centrifugation at 800 g for 10 minutes. The supernatant was thereafter recentrifuged at 21000 g for 20 minutes. The resulting pellets were suspended in 20 volumes of ice cold water before homogenization and centrifugation. The supernatant was collected by pipetting followed by recentrifugation. […]
The assay mixtures were incubated for 60 minutes in ice and binding reactions were terminated by centrifugation for 5 minutes. The surface of the pellets were washed with 1 ml of iced 50 mM HEPES buffer (pH 7.4) before measuring the incorporated radioactivity by means of a scintillation counter.
An IC50 value can be determined by calculation of the replacement ratio of the tritiated reference compound at different concentrations of the specific compound. This value represents the concentration needed to replace half the amount of the tritiated reference compound and is expressed as log (conc. of compound). […] Following the above described procedure the binding properties of 1,5-anhydro-D-arabinitol-2,3,4-trisphosphate was determined. […]

[2] = system: binding sites for phosphorylated compounds in membrane preparation from rat brains; assay: Displacement of tritiated D-myo-inositol-1,3,4,5-tetraphosphate (IP4) from rat brain membrane preparation; settings: rat brain plasma membrane fragments saturated with tritiated IP4; remaining radioactivity after addition of compound and washing
Source text: A membrane preparation was obtained from rat brains in a way suitable to provide membrane fragments from plasma membranes. From earlier studies these membrane preparations are known to comprise binding sites for phosphorylated compounds. The physiological role of these binding sites are to regulate for example vascular leakage and oedema formation in the body. The degree of binding of a specific compound to these binding sites predicts the efficiency to counteract vascular leakage in vivo.
The membrane preparation was first saturated with a tritiated control compound. The control compound was D-myo-inositol-1,3,4,5-tetraphosphate (IP4). Addition of a further compound having, increased binding properties, compared to the control compound, will result in a replacement of the control compound and thus in a reduction of the radioactivity in the sample.
The 1,5-anhydro-D-arabinitol-2,3,4-trisphosphate pentakis (cyclohexylammonium) salt obtained in Example 2 was added to a membrane preparation as described above. After washing, the radioactivity was 30% compared to the control compound (IP4), thus showing a significant binding to the preparation.

Row | IC50 value (concentration needed to replace half the amount of the tritiated reference compound) [1] | radioactivity after washing compared to the control compound (IP4) [2] | SMILES
1 | -6.9 log (conc. of compound) |  | O=P(O)(O)OC1[C@H](OP(=O)(O)O)COC[C@H]1OP(=O)(O)O [1,5-anhydro-D-arabinitol-2,3,4-trisphosphate]
2 |  | 30% | O=P(O)(O)OC1[C@H](OP(=O)(O)O)COC[C@H]1OP(=O)(O)O [Example 2, 1,5-anhydro-D-arabinitol-2,3,4-trisphosphate pentakis (cyclohexylammonium) salt]
